The target of the assay is T1, Plk-1 (Homo sapiens, UniProt P53350).
T1 construct: purchased Cyclex
Nature of the assay: ELISA-based Polo-like Kinase-1 activity assay (Cyclex). The class given is biochemical. To be noted: compound at 10 uM, 10 mU purified Plk-1, 50 uM ATP, 30 minutes at 30° C. How it is done:
An ELISA-based Polo-like Kinase-1 activity assay (Cyclex, Nagano Japan) was used to confirm the Plk-1 inhibitory activity of the illustrative compound of the invention having the structure shown below. [drawing 39]
Briefly, 10 mU of purified Plk-1 (Cyclex) was incubated with the compound of interest in triplicate wells of a substrate-coated 96-well plate, along with 50 uM ATP and kinase buffer, for 30 minutes at 30° C. Wells were washed and probed with the anti-phospho-threonine antibody, incubated for 30 minutes at room temperature, then washed and probed again with an HRP-Anti Rabbit IgG. HRP substrate was added and the extent of phosphorylation was measured using a dual-wavelength spectrophotometer. At a concentration of 10 uM, compound (IB-10) inhibited Plk-1 activity in this assay by greater than 60%.
An ELISA-based Polo-like Kinase-1 activity assay (Cyclex, Nagano Japan) was used to confirm the Plk-1 inhibitory activity of the illustrative compound of the invention having the structure shown below (Compound 18, Table 1). [drawing 40]
Briefly, 10 mU of purified Plk-1 (Cyclex) was incubated with the compound in triplicate wells of a substrate-coated 96-well plate, along with 50 uM ATP and kinase buffer, for 30 minutes at 30° C. […] HRP substrate was added and the extent of phosphorylation was measured using a dual-wavelength spectrophotometer.

Structures are written as SMILES.

T1 sequence (P53350 whole entry): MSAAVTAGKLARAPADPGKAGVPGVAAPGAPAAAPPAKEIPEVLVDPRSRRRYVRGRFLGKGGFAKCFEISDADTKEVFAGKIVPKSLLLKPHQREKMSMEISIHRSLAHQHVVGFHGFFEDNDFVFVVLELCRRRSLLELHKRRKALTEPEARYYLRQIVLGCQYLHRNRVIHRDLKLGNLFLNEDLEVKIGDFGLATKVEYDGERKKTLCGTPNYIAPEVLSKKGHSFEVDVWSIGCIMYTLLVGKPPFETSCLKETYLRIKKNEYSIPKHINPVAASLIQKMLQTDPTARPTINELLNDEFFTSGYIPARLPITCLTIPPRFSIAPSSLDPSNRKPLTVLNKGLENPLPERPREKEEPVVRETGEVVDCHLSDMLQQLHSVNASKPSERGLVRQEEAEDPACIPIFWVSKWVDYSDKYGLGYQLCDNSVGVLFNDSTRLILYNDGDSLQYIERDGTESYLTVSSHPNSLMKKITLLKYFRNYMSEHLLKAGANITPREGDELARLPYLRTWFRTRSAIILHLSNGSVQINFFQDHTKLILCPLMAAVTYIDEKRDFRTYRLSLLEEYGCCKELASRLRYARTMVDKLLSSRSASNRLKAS

On to `COc1cc2nncc(Nc3ccc(S(=O)(=O)NC(C)=O)cc3)c2cc1OC` [Compound 18, N-Acetyl-4-(6,7-dimethoxy-cinnolin-4-ylamino)-benzenesulfonamide], for which the “Plk-1 activity reduced to % of untreated controls” value (remaining activity) came out at 88%. Take `NC(=O)c1nnc2cc(Cl)c(F)cc2c1/N=C/c1ccc([N+](=O)[O-])cc1` [IB-10, (E)-4-(4-nitrobenzylideneamino)-7-chloro-6-fluorocinnoline-3-carboxamide]: the inhibition at 10 µM (read-out: inhibited Plk-1 activity) is more than 60%.
